Assay results published in patent US9493439B1, “Proteasome inhibitors” (UNIVERSITY OF KENTUCKY RESEARCH FOUNDATION, priority 2014, dated 2016).

What was measured:
[1] = molecular target: T1, CT-L activity of purified constitutive proteasome (Homo sapiens, UniProt P28074); assay: G4 analogs against the CT-L activity of purified proteasomes; type: biochemical
T1 construct: purchased R&D Systems
Description: Initially, purified 20S human proteasomes (CP and IP, R&D Systems) were used to assess the in vitro inhibition of proteasome catalytic activities by G4 and its analogs. In the 96-well format assays involving a 100/4 L total volume, 20S proteasomes (0.5/4 g/mL) were incubated with G4, its analogs, or reference compounds (e.g., carfilzomib) in assay buffer (20 mM Tris-HCl, 0.5 mM EDTA, 0.035% SDS) for 30 min at room temperature. Reactions were initiated by the addition of individual subunit-selective fluorogenic substrates containing the AMC (7-amino-4-methylcoumarin) group. The following substrates were used: for /31 activity, Ac-nLPnLD-AMC (100/4M); for /32 and /32i activity, Boc-LRR-AMC (200/4M); for /35 activity, Ac-WLA-AMC (20/4M); for /31i activity, Ac-PAL-AMC (100/4M); for /35i activity, Ac-ANW-AMC (100/4M). The fluorescence of liberated AMC was measured over a period of 90 min at room temperature using excitation and emission wavelengths of 360 and 460 nm on a SpectraMax M5 fluorescence plate reader (Molecular Devices).
In comparison, modifications at the ring D had little impact on the activity of G4. […] The mechanism by which these compounds enhance the CT-L activity of proteasome is unclear at this time.

[2] = system: CT-L activity of proteasomes in RPMI 8226 cell extracts; assay: CT-L activity of proteasomes in RPMI 8226 cell extracts (Suc-LLVY-AMC); type: biochemical, human
Description: (§1) The inhibitory effects of G4-1 on the CT-L, C-L and T-L activities were measured by assessing the hydrolysis of the fluorogenic proteasome substrates Suc-LLVY-AMC, Z-LLE-AMC and Boc-LRR-AMC, respectively. […] FIG. 5C provides a reaction progress curve with 30 min preincubation of RPMI 8226 cell extracts and G4-1. […] FIG. 5E includes the potency of G4-1 in inducing cell death in BxPC-3 cell lines with acquired resistance to bortezomib or carfilzomib. FIG. 5F provides a comparison of IC50 values of BxPC-3 sublines resistant to carfilzomib or bortezomib to its parental cell lines.
(§2) In separate experiments, cytosolic extracts of RPMI-8226 or BxPC-3 cells were prepared according to the method of Kisselev and Goldberg^25 and used in place of purified proteasomes. The fluorescence from liberated AMC of the subunit-selective probe substrates was measured as described above.

[3] = system: C-L activity of proteasomes in RPMI 8226 cell extracts; assay: C-L activity of proteasomes in RPMI 8226 cell extracts (Z-LLE-AMC); type: biochemical, human
Description: as §1, §2

[4] = system: T-L activity of proteasomes in RPMI 8226 cell extracts; assay: T-L activity of proteasomes in RPMI 8226 cell extracts (Boc-LRR-AMC); type: biochemical, human
Description: as §1, §2

[5] = system: proteasome in RPMI 8226 cell lysates; assay: Jump dilution reversibility assay; type: biochemical, human; details: preincubation of RPMI 8226 cell extracts for 30 min
Description: In further investigation of the mode of proteasome inhibition by G4-1, a dilution assay was performed following a procedure previously reported.^26 Briefly, RPMI 8226 cell lysates containing 30/4 g of total protein were incubated with G4-1 (10/4M) in 20S proteasome assay buffer for 30 min at room temperature. Lysates treated with G4-1 were subsequently transferred to a semimicrocuvette, and the baseline proteasome activity was determined by measuring the hydrolysis rate of Suc-LLVY-AMC. After establishment of the baseline, lysates treated with G4-1 were rapidly mixed with the 20S proteasome assay buffer, yielding 25-fold dilution. Following this 25-fold dilution from 10 to 0.4/4M G4-1, the hydrolysis of Suc-LLVY-AMC was again monitored over approximately 30 min.

[6] = system: variety of cancer cell lines including LNCaP prostate cancer cells; assay: Cytotoxic effects, multiple cancer cell lines; type: cell-based, human
Description: (§3) Human cancer cell lines BxPC-3, H358, H-23, LNCaP, Panc-1, and RPMI 8226 were obtained from the ATCC (American Type Culture Collection) and maintained in the ATCC-recommended media, DMEM or RPMI 1640 supplemented with 10% fetal bovine serum (from GIBCO, CeliGro, and Atlanta Biologicals). BxPC-3 cells with acquired resistance to bortezomib or carfilzomib were established by growing them in the presence of stepwise in-creasing concentrations of the respective drug over a period of approximately 6 months. In order to determine the extent of drug resistance, cytotoxicity assays were performed using BxPC-3 sublines adapted to 60 nM bortezomib and 200 nM carfilzomib, respectively.
(§4) The cytotoxic effects of G4 and its analogs were determined using CellTiter Glo assay or CellTiter 96 Aqueous One Solution Cell Proliferation assay (Promega). Adherent cells (Panc-1, LNCaP, BxPC-3, bortezomib- or carfilzomib-resistant BxPC-3 sublines) growing in log phase were plated at 7000-10000 cells per well. RPMI 8226 cells growing in suspension were collected by centrifugation and plated at 10 000 cells per well. […] After 72 h, the cell viability was determined using the assay protocol recommended by the manufacturers. The resulting signals were quantified using a Veritas microplate luminometer or a SpectraMax M5 microplate spectrophotometer (Molecular Devices).

[7] = system: BxPC-3 cell lines with acquired resistance to bortezomib or carfilzomib; assay: Cytotoxic effects, BxPC-3 sublines with acquired resistance to bortezomib or carfilzomib; type: cell-based, human
Description: as §3, §4

[8] = Microsomal stability assay, mouse; type: in vitro ADME; details: mouse liver microsomes, compared to carfilzomib and bortezomib
Description: (§5) The metabolic stability profiles of G4-1 and reference compounds (carfilzomib and bortezomib) were assessed by monitoring the disappearance of the test compounds in the presence of liver microsomes. A typical incubation mixture (100 sL total volume) for metabolic stability studies contained 1 sM test compounds, 0.5 mg/mL microsomal protein (pooled Balb/c mouse liver microsomes prepared in-house or BD UltraPool human liver microsomes), 100 mM Tris-HCl buffer (pH 7.4), and NADPH-generating system (5 mM isocitric acid, 0.2 unit/mL isocitric acid dehydrogenase, 5 mM magnesium chloride, 1 mM NADP^+). After preincubation at 37° C. for 5 min, the reactions were started by addition of NADP^+ and further incubated for another 0, 5, 10, 20 min. For control experiments, NADPH and/or liver microsomes were omitted from these incubations. The reactions were terminated by adding 100 sL of ice-cold acetonitrile containing phenytoin (1 sM) as internal standard and keeping on ice for 30 min, followed by centrifugation at 16 100 g for 15 min to obtain the supernatant. Aliquots (5 sL) were then analyzed for substrate disappearance using liquid chromatography-tandem mass spectrometry (Agilent 1200 HPLC instrument interfaced with Applied Biosystems Qtrap 3200) equipped with an electrospray ion source.

[9] = Microsomal stability assay, human; type: in vitro ADME; details: human liver microsomes, compared to carfilzomib and bortezomib
Description: as §5

LNCaP tumors [10] = details: mouse, in vivo
Description: (§6) Male nude mice bearing LNCaP tumors received intraperitoneal injections of either G4-1 (5 mg/kg), carfilzomib (5 mg/kg), or vehicle alone (8% DMSO in HP-β-cyclodextrin and sodium citrate) twice a week for 4 weeks (n=5 mice/group). Results are expressed as mean and standard deviation.
(§7) Six-week-old male BALB/c athymic nude mice (purchased from Orient Bio Inc., SungNam, Republic of Korea) were maintained in accordance with the National Institute of Toxicological Research of the Korea Food and Drug Administration guidelines as well as the regulations for the care and use of laboratory animals of the animal ethics committee of the Konyang University. LNCaP cells (2×10^6 cells/50 sL) were subcutaneously implanted into each animal. After the xenograft tumors had grown to a size of ‘−100 mm^3, mice (n=5/group) were dosed intraperitoneally twice a week for 4 weeks with G4-1 (5 mg/kg), carfilzomib (5 mg/kg), or vehicle only (8% DMSO in HP-Beta-CD and citrate). Tumor volumes (calculated using the following formula, (width)^2×length/2) and body weights were measured every 4 days during the experimental period. At the end of the experimental period (at day 30), mice were euthanized by cervical dislocation and tumors were isolated and weighed.

LNCaP tumors [11] = assay: In vivo efficacy assay, LNCaP xenograft; details: 5 mg/kg intraperitoneally twice a week for 4 weeks
Description: as §6, §7

[12] = Phase II clinical trials; cited from earlier work

Row | SMILES | inhibitory potency against the CT-L activity of purified proteasomes [1] | inhibition of proteasomal CT-L activity of cell extracts [2] | inhibition of proteasomal C-L activity of cell extracts [3] | activity against the T-L activity of cell extracts [4] | inhibition of proteasomal activity after preincubation [5] | anticancer activity against cancer cell lines [6] | anticancer effect in cell line models with acquired resistance [7] | metabolic stability [8] | metabolic stability [9] | systemic toxicity in mice (LNCaP tumors [10]) | tumor growth in vivo (LNCaP tumors [11]) | median duration of response [12] [months] | overall survival [12] [months] | response rate [12] | body weight over the course of treatment (LNCaP tumors [11])
1 | Cc1ccc(OS(=O)(=O)c2cccc(C(F)(F)F)c2)c(-c2cc(-c3ccccc3)n(CC(=O)N[C@@H]3CCNC3)n2)c1 [G4-1] | one of the most potent inhibitors | effectively inhibit | effectively inhibit | no activity | nearly complete inhibition | good anticancer activity | not negatively impacted | excellent metabolic stability | excellent metabolic stability | without apparent systemic toxicity | effectively suppressed tumor growth | – | – | – | –
2 | CC(C)C[C@H](NC(=O)[C@H](CCc1ccccc1)NC(=O)CN1CCOCC1)C(=O)N[C@@H](Cc1ccccc1)C(=O)N[C@@H](CC(C)C)C(=O)[C@@]1(C)CO1 [carfilzomib] | – | – | – | – | – | – | – | – | – | – | – | 7.8 | ~16 | under 25% | weight loss
